Reference: patent US5580881A, “1,2,3,5,6,7,8,8a-Octahydro-5,5,8a-trimethyl- (8aβ)-6-isoquinolineamine derivatives, preparation method therefor and therapeutical use thereof” (Fournier Industrie Et Sante, priority 1992, dated 1996)
Where “and” joins values, the source holds several entries; their conditions need not be identical. Identical values can stand only once. Like-named read-outs stand apart in the source and are kept apart here.

Tests used:
[1] = system: biosynthesis of hepatic cholesterol (hepatic epoxysqualene cyclase); assay: Influence on the biosynthesis of hepatic cholesterol in vivo: incorporation of radioactivity in the C27 sterols; details: oral (gavage), male OF1 mice, relative to control (vehicle) group, 14C-mevalonolactone at 1 h, sacrifice at 2 h
Method: The influence of the molecules on hepatic cholesterogenesis in vivo is tested on male OF1 mice. The animals are conditioned in reverse cycle two weeks before administration of the product.
At T=0 on the day of the experiment, the animals (3 to 6 mice/group) receive by oral administration (gavage) a suspension of the test product in the vehicle (3% gum arabic in water).
At T=1 h, the radioactive precursor (R,S-2-^14 C-mevalonolactone) in a 0.9% aqueous solution of NaCl is injected intraperitoneally [2.5 or 5 μCi/mouse (i.e. 9.25×10^4 Bq or 1.85×10^5 Bq respectively)].
At T=2 h, the animals are sacrificed by dislocation of the cervix; the livers are removed, rinsed, weighed and frozen in liquid nitrogen before being stored at -20° C.
During the conditioning period and on the day of the experiment, the animals have free access to food and drinking water.
The administration of the test product and the injection of the radioactive precursor take place in the middle of the dark period.
After thawing, the whole liver (or part of the liver) is homogenized in water at 0°-4° C. An aliquot of the homogenate is then saponified in alcoholic potassium hydroxide for 90 minutes at 80° C. The unsaponifiable lipids are then extracted with petroleum ether. The solvent is evaporated off to dryness under a stream of nitrogen and the dry residue is redissolved in a chloroform/methanol mixture (2/1). The products contained in the extract are then separated by chromatography on a thin layer of silica after migration in the system hexane/ethyl acetate (80/20).
The deposition of a standard mixture containing non-radioactive cholesterol, lanosterol, monoepoxysqualene, diepoxysqualene and squalene, together with ^14 C-cholesterol, makes it possible to determine the Rf of the compounds which serve as a reference for analysis of the radioactive profile of the unsaponifiable lipids.
The distribution of the radioactivity is analyzed with an automatic linear analyzer. The relative percentage of radioactivity in the C^27 -sterol peak of the control (vehicle) group represents 100% incorporation. Calculation of the influence is based on the ratio of the percentage of radioactivity in the C^27 -sterol peak of the treated group to that of the control group.

[2] = biological target: T1, epoxysqualene cyclase of the hepatic microsomes (Rattus norvegicus, UniProt P48450); assay: Epoxysqualene cyclase inhibition: lanosterol formed from R,S-2,3-oxidosqualene by rat hepatic microsomes; assay type: biochemical, male Wistar rats
T1 construct: Rat hepatic microsomes are used as the enzyme source; from tissue; host or cells: liver microsomes of male Wistar rats
T1 sequence (P48450 1-733): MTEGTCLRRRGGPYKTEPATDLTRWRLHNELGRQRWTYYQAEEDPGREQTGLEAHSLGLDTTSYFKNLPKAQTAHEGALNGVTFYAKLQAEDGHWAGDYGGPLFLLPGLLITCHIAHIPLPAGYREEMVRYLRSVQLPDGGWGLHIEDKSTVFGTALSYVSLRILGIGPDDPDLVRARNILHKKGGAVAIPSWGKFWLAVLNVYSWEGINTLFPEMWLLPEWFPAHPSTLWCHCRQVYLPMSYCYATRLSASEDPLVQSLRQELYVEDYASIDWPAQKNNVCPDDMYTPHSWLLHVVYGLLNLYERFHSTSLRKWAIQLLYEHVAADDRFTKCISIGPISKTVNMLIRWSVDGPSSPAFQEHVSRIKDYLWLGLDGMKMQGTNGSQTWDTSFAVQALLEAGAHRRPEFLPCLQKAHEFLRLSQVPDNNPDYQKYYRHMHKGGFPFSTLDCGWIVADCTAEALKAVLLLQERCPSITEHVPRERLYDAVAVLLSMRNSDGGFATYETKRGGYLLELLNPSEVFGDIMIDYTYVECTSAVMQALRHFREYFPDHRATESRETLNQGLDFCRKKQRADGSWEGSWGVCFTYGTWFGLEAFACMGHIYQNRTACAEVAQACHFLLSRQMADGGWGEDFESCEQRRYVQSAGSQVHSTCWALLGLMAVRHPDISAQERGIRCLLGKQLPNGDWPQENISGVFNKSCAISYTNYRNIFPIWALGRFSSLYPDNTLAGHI
Method: The method consists in measuring the lanosterol formed from the R,S-2,3-oxidosqualene by the microsomal enzyme. The enzyme is prepared according to the method described by Ness G. C. (Ness G. C. et al., Biochem. J. (1986), 233,167-172).
Method of Measuring the Epoxysqualene Cyclase Activity
Rat hepatic microsomes are used as the enzyme source. The method consists in measuring the lanosterol formed from the R,S-2,3-oxidosqualene. The R,S-2,3-oxidosqualene, the test products and Tween®80, in the form of organic solutions (2-propanone or sulfinylbismethane) (25 μl ), are placed in test tubes and 400 μl of potassium phosphate buffer (0.1M, pH=7.4) are then added. The reaction is initiated by the addition of 100 μl of microsomes. For a final reaction volume of 525 μl , the mixture contains 150 μM of R,S-2,3-oxidosqualene, 0.1% of Tween®80 (to solubilize the R,S-2,3-oxidosqualene) and 250 μg of microsomal proteins. The reaction time is 60 minutes at 37° C. The reaction is stopped by the addition of 300 μl of methanolic potassium hydroxide (7%) and 20 μg of stigmasterol as an internal standard. After saponification at 80° C. for 30 minutes and stirring with a rotary stirrer, the sterols are extracted with 2 ml of hexane.
The lanosterol formed is separated from the R,S-2,3-oxidosqualene, the membrane cholesterol and the stigmasterol by gas chromatography after conversion to trimethylsilyl ethers. The derivatization of the sterols is carried out at 60° C. for 30 minutes after the addition of 25 μl of pyridine and 75 μl of the trimethylsilyl ester of 2,2,2-trifluoro-N-trimethylsilylethanimidic acid containing 1% of trimethylchlorosilane ethers.
After evaporation, the trimethylsilyl ethers are redissolved in 100 μl of hexane. An aliquot of this solution (2 μl) is chromatographed in the gas phase on an OV1 capillary column (0.32 mm, 25 m) under the following conditions: injector temperature=270° C., oven temperature=260° C., detector temperature=300° C., the carrier gas being nitrogen at a pressure of 7.10^4 Pa.
The potency of the molecules tested is expressed as the percentage inhibition of the amount of lanosterol formed for a concentration of 25.10^-6 mol of test product per liter. The results obtained with a number of compounds according to the invention are collated in Table II.

[3] = 25.10^-6 mol of test product per liter, 60 minutes at 37° C., pH=7.4, rat hepatic microsomes

Row | Compound | Percentage inhibition of the amount of lanosterol formed [2, 3] | also measured
1 | C=CCN1CC=C2C(C)(C)[C@@H](NC(=O)C(F)(F)F)CC[C@]2(C)C1 (relative stereo) [Example 1, N-Trifluoroacetyl-1,2,3,5,6,7,8,8a-octahydro-2-(2-propen-1-yl)-5,5,8a-trimethyl-(6β,8aβ)-6-isoquinolineamine] | – | Percentage influence on the incorporation of radioactivity in the C27 sterols ([1]; 50 mg base/kg): -37%
2 | CCCCCCCCCCCCN1CC=C2C(C)(C)[C@@H](NC)CC[C@]2(C)C1 (relative stereo) [Example 12, N-Methyl-1,2,3,5,6,7,8,8a-octahydro-2-dodecyl-5,5,8a-trimethyl-(6β,8aβ)-6-isoquinolineamine ethanedioate] | 65% | –
3 | C=CCN1CC=C2C(C)(C)[C@@H](NC)CC[C@]2(C)C1 (relative stereo) [Example 13, N-Methyl-1,2,3,5,6,7,8,8a-octahydro-2-(2-propen-1-yl)-5,5,8a-trimethyl-(6β,8aβ)-6-isoquinolineamine ethanedioate] | – | Percentage inhibition of the amount of lanosterol formed [2]: 63%
4 | CCCCCCCCCCCCN1CC=C2C(C)(C)[C@@H](N)CC[C@]2(C)C1 (relative stereo) [Example 14, 1,2,3,5,6,7,8,8a-Octahydro-2-dodecyl-5,5,8a-trimethyl-(6β,8aβ)-6-isoquinolineamine E-2-butenedioate] | 29% | –
5 | C=CCN1CC=C2C(C)(C)[C@@H](NC(C)=O)CC[C@]2(C)C1 (relative stereo) [Example 16, N-Acetyl-1,2,3,5,6,7,8,8a-octahydro-2-(2-propen-1-yl)-5,5,8a-trimethyl-(6β,8aβ)-6-isoquinolineamine 4-methylbenzenesulfonate] | – | Percentage influence on the incorporation of radioactivity in the C27 sterols ([1]; 50 mg base/kg): -14%
6 | CCCCCCCCCCCCN1CC=C2C(C)(C)[C@@H](N(C)C)CC[C@]2(C)C1 (relative stereo) [Example 17, N,N-Dimethyl-1,2,3,5,6,7,8,8a-octahydro-2-dodecyl-5,5,8a-trimethyl-(6β,8aβ)-6-isoquinolineamine (E)-2-butenedioate] | 100% | –
7 | CCCCCCCCCCCCN1CC=C2C(C)(C)[C@H](N(C)C)CC[C@]2(C)C1 (relative stereo) [Example 18, N,N-Dimethyl-1,2,3,5,6,7,8,8a-octahydro-2-dodecyl-5,5,8a-trimethyl-(6α,8aβ)-6-isoquinolineamine ethanedioate] | 66% | –
8 | C=CCN1CC=C2C(C)(C)[C@@H](N(C)C)CC[C@]2(C)C1 (relative stereo) [Example 20, N,N-Dimethyl-1,2,3,5,6,7,8,8a-octahydro-2-(2-propen-1-yl)-5,5,8a-trimethyl-(6β,8aβ)-6-isoquinolineamine (E)-2-butenedioate] | 89% | Percentage influence on the incorporation of radioactivity in the C27 sterols ([1]; 50 mg base/kg): -21%
9 | CCCN1CC=C2C(C)(C)[C@@H](N(C)C)CC[C@]2(C)C1 (relative stereo) [Example 21, N,N-Dimethyl-1,2,3,5,6,7,8,8a-octahydro-2-propyl-5,5,8a-trimethyl-(6β,8aβ)-6-isoquinolineamine ethanedioate] | 100% | –
10 | CN(C)[C@H]1CC[C@]2(C)CN(CC=Cc3ccccc3)CC=C2C1(C)C (relative stereo) [Example 23, N,N-Dimethyl-1,2,3,5,6,7,8,8a-octahydro-2-(3-phenyl-2-propen-1-yl)-5,5,8a-trimethyl-(6β,8aβ)-6-isoquinolineamine 4-methylbenzenesulfonate] | 98% | –
11 | CN(C)[C@H]1CC[C@]2(C)CN(CC=C(c3ccccc3)c3ccccc3)CC=C2C1(C)C (relative stereo) [Example 24, N,N-Dimethyl-1,2,3,5,6,7,8,8a-octahydro-2-(3,3-diphenyl-2-propen-1-yl)-5,5,8a-trimethyl-(6β,8aβ)-6isoquinolineamine ethanedioate] | 92% | –
12 | CC1(C)C2=CCN(CC3CO3)C[C@@]2(C)CC[C@@H]1NC(=O)C(F)(F)F (stereo partly drawn) [Example 5, N-Trifluoroacetyl-1,2,3,5,6,7,8,8a-octahydro-2-[1-(2,3-epoxypropyl)]-5,5,8a-trimethyl-(6β,8aβ)-6-isoquinolineamine] | – | Percentage influence on the incorporation of radioactivity in the C27 sterols ([1]; 50 mg base/kg): -32%
13 | CC1(C)C2=CCN(CC(O)CO)C[C@@]2(C)CC[C@@H]1NC(=O)C(F)(F)F (stereo partly drawn) [Example 6, N-Trifluoroacetyl-1,2,3,5,6,7,8,8a-octahydro-2-[1-(2,3-dihydroxypropyl)]-5,5,8a-trimethyl-(6β,8aβ)-6-isoquinolineamine E-2-butenedioate] | 62% | Percentage influence on the incorporation of radioactivity in the C27 sterols ([1]; 100 mg base/kg): -74% and -78%
14 | CN(C)[C@H]1CC[C@]2(C)CN(CC(O)CO)CC=C2C1(C)C (stereo partly drawn) [Example 22, N,N-Dimethyl-1,2,3,5,6,7,8,8a-octahydro-2-[1-(2,3-dihydroxypropyl)]-5,5,8a-trimethyl-(6β,8aβ)-6-isoquinolineamine] | 64% | –
15 | CC(Cc1ccc(C(C)C)cc1)CN1CC=C2C(C)(C)[C@@H](N(C)C)CC[C@]2(C)C1 (stereo partly drawn) [Example 25, N,N-Dimethyl-1,2,3,5,6,7,8,8a-octahydro-2-[1-[2-methyl-3-[4-(1-methylethyl)phenyl]propyl]]-5,5,8a-trimethyl-(6β,8aβ)-6-isoquinolineamine (E)-2-butenedioate] | 98% | –
